Key:
Format in all cases: in vivo
Avena fatua (AVEFA) [1] = assay: Biological Example 2 post-emergence herbicidal activity (comparative data)
Protocol: (§1) Seeds of a variety of test species were sown in standard soil in pots. After cultivation for one day (pre-emergence) or after 8 days cultivation (post-emergence) under controlled conditions in a glasshouse (at 24/16°C., day/night; 14 hours light; 65% humidity), the plants were sprayed with an aqueous spray solution derived from the formulation of the “technical”(i.e. unformulated) active ingredient in acetone/water (50:50) solution containing 0.5% Tween 20 (polyoxyethylene sorbitan monolaurate, CAS Registry Number 9005-64-5). The test plants were then grown in a glasshouse under controlled conditions in a glasshouse (at 24/16°C., day/night; 14 hours light; 65% humidity) and watered twice daily. After 13 days for pre- or post-emergence, the test was evaluated visually, and an assessed percentage phytotoxicity score given for each herbicidal application on each plant/weed species (with 100%=total damage to plant; 0%=no damage to plant).
(§2) Comparative herbicidal data are given for certain exemplified compounds with 4-(prop-1-ynyl)-2,6-dimethylphenyl or 4-(chloroethynyl)-2,6-dimethylphenyl headgroups, compared to the corresponding comparative compounds with 4-ethynyl-2,6-dimethylphenyl headgroups, as follows.
(§3) Except where specified otherwise, the glasshouse screen for herbicidal activity is substantially the same as that presented in Biological Example 1 hereinabove. The weed abbreviations are as defined in Biological Example 1.

Lolium perenne (LOLPE) [2] = assay: as above
Protocol: as §1, §2, §3

[3] = tested on: Alopecurus myosuroides (ALOMY); assay: as above; conditions: 312 h, read-out: ALOMY percentage phytotoxicity
Protocol: as §1, §2, §3

[4] = tested on: Echinochloa crus-galli (ECHCG); assay: as above; conditions: 312 h, read-out: ECHCG percentage phytotoxicity
Protocol: as §1, §2, §3

Avena fatua (AVEFA) [5] = assay: Biological Example 1 glasshouse screen, post-emergence herbicidal activity; conditions: 312 h, application rate 250 g/ha, evaluated after 13 days, read-out: AVEFA percentage phytotoxicity
Protocol: as §1
(§4) Test plants: Lolium perenne (LOLPE), Alopecurus myosuroides (ALOMY), Echinochloa crus-galli (ECHCG), and Avena fatua (AVEFA). All four of these are grassy monocotyledonous weeds.

Lolium perenne (LOLPE) [6] = assay: as above; conditions: 312 h, application rate 250 g/ha, evaluated after 13 days, read-out: LOLPE percentage phytotoxicity
Protocol: as §1, §4

[7] = tested on: Alopecurus myosuroides (ALOMY); assay: as above; conditions: 312 h, application rate 250 g/ha, evaluated after 13 days, read-out: ALOMY percentage phytotoxicity
Protocol: as §1
(§5) Test plants: Alopecurus myosuroides (ALOMY), Setaria faberi (SETFA), Echinochloa crus-galli (ECHCG), Solanum nigrum (SOLNI), Amaranthus retroflexus (AMARE) and Ipomoea hederacea (IPOHE). ALOMY, SETFA and ECHCG are grassy monocotyledonous weeds. SOLNI, AMARE and IPOHE are dicotyledonous (broadleaved) weeds.
as §4

[8] = tested on: Echinochloa crus-galli (ECHCG); assay: as above; conditions: 312 h, application rate 250 g/ha, evaluated after 13 days, read-out: ECHCG percentage phytotoxicity
Protocol: as §1, §5, §4

[9] = tested on: Alopecurus myosuroides (ALOMY); assay: Biological Example 1 glasshouse screen, pre-emergence herbicidal activity; conditions: 312 h, application rate 250 g/ha, evaluated after 13 days, read-out: ALOMY percentage phytotoxicity
Protocol: as §1, §5, §4

[10] = tested on: Echinochloa crus-galli (ECHCG); assay: as above; conditions: 312 h, application rate 250 g/ha, evaluated after 13 days, read-out: ECHCG percentage phytotoxicity
Protocol: as §1, §5, §4

[11] = tested on: Triticum aestivum, wheat (TRZAW); assay: Biological Example 3 glasshouse screen, post-emergence, phytotoxicity on wheat; conditions: 360 h, application rate 30 g/ha, 15 DAA, no safener, read-out: TRZAW percentage phytotoxicity
Protocol: (§6) Test Method: Seeds of a variety of test species are sown in standard soil in pots. After cultivation for one day (pre-emergence) or after 12 days cultivation (post-emergence) under controlled conditions in a glasshouse (warm climate species at 24/18°C., cool climate species at 20/16°C., both at day/night; 16 hours light; 65% humidity), the plants are sprayed with an aqueous spray solution derived from the formulation of the “technical”(i.e. unformulated) active ingredient dissolved in acetone plus IF50, at a 1:20 ratio of “technical”active ingredient to IF50. The IF50 contains about 10.56 weight % Emulsogen EL™(castor oil ethoxylate, CAS Registry number 61791-12-6), about 42.22 weight % N-methylpyrrolidone, and about 42.22 weight % DPG-Monoethyl ether (dipropylene glycol mono-ethyl ether). The adjuvant X-77 (a mixture of alkyl aryl polyoxyethylene glycols and free fatty acids in isopropanol, CAS Registry number 11097-66-8) is added to the aqueous spray solution to form a 0.2% v/v solution, before spraying onto the plants.
(§7) The test plants are then grown in a glasshouse under controlled conditions in a glasshouse (at 24/18°C. or 20/16°C., day/night; 16 hours light; 65% humidity) and watered twice daily. After 15 days after application of the herbicide (15 DAA) (for post-emergence), and after 20 DAA (for pre-emergence), the test is evaluated visually, and an assessed percentage phytotoxicity score is given for each herbicidal application on each plant/weed species (with 100%=total damage to plant; 0%=no damage to plant).
These give an approximate indication of the level of selectivity on wheat for these tested compounds, when a herbicide safener such as cloquintocet-mexyl is not used: […]

[12] = tested on: Lolium perenne, perennial ryegrass (LOLPE); assay: Biological Example 3 glasshouse screen, post-emergence herbicidal activity; conditions: 360 h, application rate 30 g/ha, 15 DAA, no safener, read-out: LOLPE percentage phytotoxicity
Protocol: as §6
as §7, with “plant). […]” for “plant).”

[13] = tested on: Avena fatua, wild oats (AVEFA); assay: as above; conditions: 360 h, application rate 30 g/ha, 15 DAA, no safener, read-out: AVEFA percentage phytotoxicity
Protocol: as §6
as §7, with “plant). […]” for “plant).”

[14] = tested on: Echinochloa crus galli, barnyardgrass (ECHCG); assay: as above; conditions: 360 h, application rate 30 g/ha, 15 DAA, no safener, read-out: ECHCG percentage phytotoxicity
Protocol: as §6
as §7, with “plant). […]” for “plant).”

[15] = tested on: Alopecurus myosuroides, blackgrass (ALOMY); assay: as above; conditions: 360 h, application rate 30 g/ha, 15 DAA, no safener, read-out: ALOMY percentage phytotoxicity
Protocol: as §6
as §7, with “plant). […]” for “plant).”

Avena fatua (AVEFA) [16] = assay: Biological Example 1 glasshouse screen, pre-emergence herbicidal activity; conditions: 312 h, application rate 250 g/ha, evaluated after 13 days, read-out: AVEFA percentage phytotoxicity
Protocol: as §1, §4

Lolium perenne (LOLPE) [17] = assay: as above; conditions: 312 h, application rate 250 g/ha, evaluated after 13 days, read-out: LOLPE percentage phytotoxicity
Protocol: as §1, §4

SMILES: CC#Cc1cc(C)c(C2=C(O)CC(CC3CCOCC3)C2=O)c(C)c1 (stereo not drawn) [Compound A-4, 2-(2,6-Dimethyl-4-prop-1-ynylphenyl)-4-(tetrahydropyran-4-ylmethyl)cyclopentane-1,3-dione]
- AVEFA percentage phytotoxicity (Avena fatua (AVEFA) [1]; 15.625 g/ha application rate): 100%
- AVEFA percentage phytotoxicity (Avena fatua (AVEFA) [1]; 62.5 g/ha application rate): 100%
- LOLPE percentage phytotoxicity (Lolium perenne (LOLPE) [2]; 15.625 g/ha application rate): 100%
- LOLPE percentage phytotoxicity (Lolium perenne (LOLPE) [2]; 62.5 g/ha application rate): 100%
- pest or weed control at 15.625 g/ha ([3]; 15.625 g/ha application rate): 70%
- pest or weed control at 62.5 g/ha ([3]; 62.5 g/ha application rate): 90%
- pest or weed control at 15.625 g/ha ([4]; 15.625 g/ha application rate): 100%
- pest or weed control at 62.5 g/ha ([4]; 62.5 g/ha application rate): 100%
- pest or weed control at 250 g/ha (Avena fatua (AVEFA) [5]): 100%
- pest or weed control at 250 g/ha (Lolium perenne (LOLPE) [6]): 100%
- pest or weed control at 250 g/ha [7]: 90%
- pest or weed control at 250 g/ha [8]: 100%
- pest or weed control at 250 g/ha [9]: 100%
- pest or weed control at 250 g/ha [10]: 100%
- pest or weed control at 30 g/ha [11]: 80%
- pest or weed control at 30 g/ha [12]: 100%
- pest or weed control at 30 g/ha [13]: 80%
- pest or weed control at 30 g/ha [14]: 100%
- pest or weed control at 30 g/ha [15]: 100%
- pest or weed control at 250 g/ha (Avena fatua (AVEFA) [16]): 70%
- pest or weed control at 250 g/ha (Lolium perenne (LOLPE) [17]): 100%
